The target of data set [1] is T1, hP2Y14R (Homo sapiens, UniProt Q15391).
T1 sequence (Q15391 1-338): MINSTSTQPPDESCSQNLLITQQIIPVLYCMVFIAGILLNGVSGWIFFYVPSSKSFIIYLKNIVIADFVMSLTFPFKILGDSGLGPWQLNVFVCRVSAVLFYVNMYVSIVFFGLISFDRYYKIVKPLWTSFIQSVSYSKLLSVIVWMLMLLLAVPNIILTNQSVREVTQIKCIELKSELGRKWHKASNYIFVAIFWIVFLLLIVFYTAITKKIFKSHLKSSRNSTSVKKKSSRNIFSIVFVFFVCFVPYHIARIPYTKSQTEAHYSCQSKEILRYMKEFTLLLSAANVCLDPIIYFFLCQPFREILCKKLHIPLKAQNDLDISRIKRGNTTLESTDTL
In kind it is binding. Particulars: for fold lower hP2Y14R affinity than 22: relative to reference 22; for fold lower hP2Y14R affinity than 2: relative to reference triazole 2.

For data set [2], the system named is CCI of the sciatic nerve in adult male ICR mice. Particulars: mouse, 10 μmol/kg, ip; ref Mufti et al.[12]; cited from earlier work.
Data set [3] is described as follows: Plasma protein binding in three species.
In the next data set the test system is ASP/OVA-sensitized mice. The experiment in a line: Ovalbumin/Aspergillus protease mouse model of allergic asthma, BALF cell counts. Particulars: 10 mg/kg ip 30 min prior to allergen challenge, BALF 2 days post-challenge.
The subject of data set [4] is 46 receptors, transporters, and ion channels. Particulars: non-P2YR off-target screen; ref [8],[9]; cited from earlier work.
Data set [5] is described as follows: Pharmacokinetics in the rat, ip and iv.
A short description of data set [6]: Observed solubility in water, DMSO or aqueous DMSO. The following applies: for solubility in DMSO at 1 mM: as a zwitterion, 1 mM in DMSO.
A short description of data set [7]: Aqueous solubility, pION method. The following applies: Table 5, pION method.
Data set [8] deals with T1, hP2Y14R. Kind of data set: Competitive binding assay of CHO-hP2Y14R cells at different pH levels.
In another data set the target is CB2 cannabinoid receptor (Homo sapiens, UniProt P34972). Kind of data set: PDSP functional agonist/antagonist assay, CB2. In kind it is cell-based.
For the next data set, the target named is CB1 cannabinoid receptor (Homo sapiens, UniProt P21554). The experiment in a line: PDSP functional agonist/antagonist assay, CB1. In kind it is cell-based.
Another data set concerns the target δ-opioid (DOR) receptor (Homo sapiens, UniProt P41143). Kind of data set: PDSP off-target binding, DOR.
Another data set has as its system other P2YRs. The following applies: ref [8],[17]; cited from earlier work.
A further data set concerns the target T2, mP2Y14R (Mus musculus, UniProt Q9ESG6).
T2 sequence (Q9ESG6 1-338): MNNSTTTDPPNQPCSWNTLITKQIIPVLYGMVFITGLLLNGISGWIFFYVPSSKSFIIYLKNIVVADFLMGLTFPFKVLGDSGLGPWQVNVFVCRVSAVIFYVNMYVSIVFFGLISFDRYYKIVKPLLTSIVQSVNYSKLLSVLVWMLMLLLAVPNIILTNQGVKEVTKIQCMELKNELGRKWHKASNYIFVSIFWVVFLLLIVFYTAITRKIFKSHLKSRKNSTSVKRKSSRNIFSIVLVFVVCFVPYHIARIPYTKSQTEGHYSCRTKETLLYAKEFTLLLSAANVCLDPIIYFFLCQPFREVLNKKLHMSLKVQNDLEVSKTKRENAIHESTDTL
Particulars: mP2Y14R-expressing HEK293 cells, 1 μM, fluorescence micrographs; ref [12]; cited from earlier work.

The values that follow come from paper PMC8040948 (Journal of medicinal chemistry, 2020).

Each structure is given as a SMILES string. Converted amounts (≈) assume the structure as drawn. “Also recorded” adds a separate entry of the source. Where two headings read alike, the source gives them in different places. Where only a bound is given, the exact number is not on record here.

CB1 cannabinoid receptor, sequence (P21554 whole entry): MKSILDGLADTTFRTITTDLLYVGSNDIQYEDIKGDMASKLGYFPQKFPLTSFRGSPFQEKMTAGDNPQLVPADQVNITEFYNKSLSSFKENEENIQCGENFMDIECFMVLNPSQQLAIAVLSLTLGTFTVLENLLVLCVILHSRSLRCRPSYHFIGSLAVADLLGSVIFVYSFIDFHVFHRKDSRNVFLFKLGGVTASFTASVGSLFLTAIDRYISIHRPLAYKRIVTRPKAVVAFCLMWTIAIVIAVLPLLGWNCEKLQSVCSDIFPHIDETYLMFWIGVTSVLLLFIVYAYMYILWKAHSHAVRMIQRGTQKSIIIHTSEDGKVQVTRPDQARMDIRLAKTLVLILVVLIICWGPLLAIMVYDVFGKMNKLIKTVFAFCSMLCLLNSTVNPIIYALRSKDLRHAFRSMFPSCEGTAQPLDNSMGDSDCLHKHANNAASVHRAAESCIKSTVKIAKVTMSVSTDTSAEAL
CB2 cannabinoid receptor, sequence (P34972 whole entry): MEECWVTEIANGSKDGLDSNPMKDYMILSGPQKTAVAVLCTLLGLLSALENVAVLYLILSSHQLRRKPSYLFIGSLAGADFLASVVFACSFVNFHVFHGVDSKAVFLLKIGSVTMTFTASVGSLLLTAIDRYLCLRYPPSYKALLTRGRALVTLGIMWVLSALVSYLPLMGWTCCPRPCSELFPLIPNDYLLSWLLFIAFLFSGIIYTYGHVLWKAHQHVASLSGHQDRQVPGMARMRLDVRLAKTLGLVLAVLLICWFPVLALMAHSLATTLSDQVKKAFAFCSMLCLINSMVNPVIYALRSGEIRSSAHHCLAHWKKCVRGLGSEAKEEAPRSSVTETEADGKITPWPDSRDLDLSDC
δ-opioid (DOR) receptor, sequence (P41143 whole entry): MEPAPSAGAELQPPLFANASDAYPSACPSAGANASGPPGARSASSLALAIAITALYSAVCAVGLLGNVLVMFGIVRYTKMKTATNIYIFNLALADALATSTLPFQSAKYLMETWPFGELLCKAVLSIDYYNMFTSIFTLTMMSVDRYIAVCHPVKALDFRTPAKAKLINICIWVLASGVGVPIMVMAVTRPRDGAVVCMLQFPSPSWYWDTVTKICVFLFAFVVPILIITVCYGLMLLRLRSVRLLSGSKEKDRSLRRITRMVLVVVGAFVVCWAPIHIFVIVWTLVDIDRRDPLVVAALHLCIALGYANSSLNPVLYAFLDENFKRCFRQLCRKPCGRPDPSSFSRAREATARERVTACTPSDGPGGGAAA

`NC(=O)c1ccc(-c2cc(NC(=O)c3ccc(C(F)(F)F)cc3)cc(C(=O)O)c2)cc1` [Compound 27, 4′-Carbamoyl-5-(4-(trifluoromethyl)benzamido)-[1,1′-biphenyl]-3-carboxylic Acid]: at hP2Y14R [1], the “fold lower hP2Y14R affinity than 22” value is 11 fold.

For the molecule `CC(=O)N1CCC(c2ccc(-c3cc(C(=O)O)cc4cc(-c5ccc(C(F)(F)F)cc5)ccc34)cc2)CC1` [Compound 8, 4-(4-(1-(Acetyl)piperidin-4-yl)phenyl)-7-(4-(trifluoromethyl)phenyl)-2-naphthoic Acid], the “efficacy in CCI model” value in data set [2] is listed as “effective”.

`O=C(O)c1cc(-c2ccc(C3CCNCC3)cc2)c2nc(-c3ccc(C(F)(F)F)cc3)[nH]c2c1` [Compound 35, 4-(4-(Piperidin-4-yl)phenyl)-2-(4-(trifluoromethyl)phenyl)-1H-benzo[d]imidazole-6-carboxylic Acid]: the IC50 (in general, the concentration needed to halve the response being measured) against hP2Y14R [1] (IC50 at hP2Y14R) is greater than 100 µM.

For the molecule `O=C(O)c1cc(-c2ccc(C34CCNCC3C4(F)F)cc2)cc(-n2cc(-c3ccc(C(F)(F)F)cc3)nn2)c1` (stereo not drawn) [Compound 20, 4′-(7,7-Difluoro-3-azabicyclo[4.1.0]heptan-6-yl)-5-(4-(4-(trifluoromethyl)phenyl)-1H-1,2,3-triazol-1-yl)-[1,1′-biphenyl]-3-carboxylic Acid], the “fold lower hP2Y14R affinity than 2” value on hP2Y14R [1] is 20 fold.

Take `C[N+]12CCC(c3ccc(-c4cc(C(=O)O)cc5cc(-c6ccc(C(F)(F)F)cc6)ccc45)cc3)(CC1)CC2` [Compound 21, 4-(4-(1-Methylquinuclidin-1-ium-4-yl)phenyl)-7-(4-(trifluoromethyl)phenyl)-2-naphthoate]: the plasma protein binding entry in data set [3] was “high”.

For `C#CCCCCN1CCC(c2ccc(-c3cc(C(=O)O)cc4cc(-c5ccc(C(F)(F)F)cc5)ccc34)cc2)CC1` [Compound 7a, 4-(4-(1-(Hex-5-yn-1-yl)piperidin-4-yl)phenyl)-7-(4-(trifluoromethyl)phenyl)-2-naphthoic Acid], in the data set on ASP/OVA-sensitized mice, the “effect on eosinophilic airway inflammation” value (“effect” for short) is “protected; also recorded: highest potency of reducing eosinophil infiltration”. In data set [4], the off-target interactions result is recorded as “no detected off-target interactions”.

With `O=C(O)c1cc(-c2ccc(C34CCN(CC3)CC4)cc2)c2ccc(-c3ccc(C(F)(F)F)cc3)cc2c1` [Compound 17, 4-(4-(Quinuclidin-4-yl)phenyl)-7-(4-(trifluoromethyl)phenyl)-2-naphthoic Acid], the “time at which maximal plasma concentration was reached” value in data set [5] was 3 to 4 h. In data set [5] (highest dose (10 mg/kg), 12 h), the “plasma concentration at the 12 h time point” value lay in the range of 200 to 400 ng/kg. Moreover, the solubility (in general, the concentration that dissolves in the medium under given conditions) in data set [6] is no less than 1 mg/mL; in data set [7] (pH 4, aqueous solubility (pH 4.0, μg/mL), pH 4.0, mean ± SD) it was 0.0143 ± 0.0005 mg/mL (≈ 28.5 µM); in data set [7] (pH 7.4, aqueous solubility (pH 7.4, μg/mL), pH 7.4, mean ± SD) it was 0.00044 ± 6e-05 mg/mL (≈ 0.877 µM). The “solubility in DMSO at 1 mM” value in data set [6] is on record as “readily soluble”. Moreover, the “effect” value in the data set on ASP/OVA-sensitized mice is “protected”. This molecule also showed a half-maximal inhibitory concentration (IC50) on hP2Y14R [8] of 0.0308 ± 0.0022 µM. Also, in [3], the plasma protein binding result is reported as “high”.

Regarding `CCCN1CCC(c2ccc(-c3cc(C(=O)O)cc4cc(-c5ccc(C(F)(F)F)cc5)ccc34)cc2)CC1` [Compound 6b, 4-(4-(1-Propylpiperidin-4-yl)phenyl)-7-(4-(trifluoromethyl)phenyl)-2-naphthoic Acid], the off-target interactions entry in data set [4] is “no detected off-target interactions”.

As for `NCCCNC(=O)c1ccc(-c2cc(C(=O)O)cc(-n3cc(-c4ccc(C(F)(F)F)cc4)nn3)c2)s1` [Compound 23, reference compound], the “effect” value in the data set with ASP/OVA-sensitized mice is given as “protected”. The plasma protein binding result in data set [3] was “high”.

Take `O=C(O)c1cc(-c2ccc(C3CCNCC3)cc2)cc(-c2cn(-c3ccc(C(F)(F)F)cc3)nn2)c1` [Compound 25, 4′-(Piperidin-4-yl)-5-(1-(4-(trifluoromethyl)phenyl)-1H-1,2,3-triazol-4-yl)-[1,1′-biphenyl]-3-carboxylic Acid]: the IC50 on CB2 cannabinoid receptor and at CB1 cannabinoid receptor was greater than 10 µM throughout. The plasma protein binding entry in data set [3] is “high”.

Regarding `O=C(O)c1cc(-c2ccc(C34CCNCC3C4)cc2)cc(-n2cc(-c3ccc(C(F)(F)F)cc3)nn2)c1` (stereo not drawn) [Compound 19, 4′-(3-Azabicyclo[4.1.0]heptan-6-yl)-5-(4-(4-(trifluoromethyl)phenyl)-1H-1,2,3-triazol-1-yl)-[1,1′-biphenyl]-3-carboxylic Acid], at hP2Y14R [1], the “fold lower hP2Y14R affinity than 2” value stood at 11 fold.

Consider `NCCCNC(=O)c1ccc(-c2cc(C(=O)O)cc(-c3cn(-c4ccc(C(F)(F)F)cc4)nn3)c2)s1` [Compound 26, 3-(5-((3-Aminopropyl)carbamoyl)thiophen-2-yl)-5-(1-(4-(trifluoromethyl)phenyl)-1H-1,2,3-triazol-4-yl)benzoic Acid], for which affinity at δ-opioid (DOR) receptor was put at a Ki of 2.96 µM.

Turning to `O=C(O)c1cc(-c2ccc(C3CCNCC3)cc2)cc(-n2cc(-c3ccc(C(F)(F)F)cc3)nn2)c1` [Compound 2, reference compound], the “activity at other P2YRs” value in the data set with other P2YRs is “inactive”. The “effect” value in the data set on ASP/OVA-sensitized mice was “inactive”. Moreover, in [4], the off-target interactions result is on record as “no detected off-target interactions”.

On to `NC(=O)c1ccc(-c2cc(C(=O)O)cc(-c3cn(-c4ccc(C(F)(F)F)cc4)nn3)c2)cc1` [Compound 24, 4′-Carbamoyl-5-(1-(4-(trifluoromethyl)phenyl)-1H-1,2,3-triazol-4-yl)-[1,1′-biphenyl]-3-carboxylic Acid], for which the “fold lower hP2Y14R affinity than 22” value at hP2Y14R [1] is recorded as 6.2 fold.

For `O=C(O)c1cc(-c2ccc(C3CCNCC3)cc2)c2ccc(-c3ccc(C(F)(F)F)cc3)cc2c1` [Compound 1, 4-[4-(4-piperidinyl)-phenyl]-7-[4-(trifluoromethyl)phenyl]-2-naphthalenecarboxylic acid, reference compound], the “efficacy in CCI model” value in data set [2] is reported as “effective”. Also, the “inhibition of intact cell binding of 36” value on mP2Y14R was “almost completely inhibited”. Moreover, the “solubility in DMSO at 1 mM” value in [6] is reported as “failed to dissolve”. The “effect” value in the data set with ASP/OVA-sensitized mice is reported as “protected; also recorded: strongly attenuated eosinophilic airway inflammation”. Further, the 50% inhibitory concentration (IC50) on CB2 cannabinoid receptor and on CB1 cannabinoid receptor was greater than 10 µM in each case.

With `O=C(O)c1cc(NC(=O)C23C4C5C2C2C3C4C52CO)cc(-c2ccc(C3CCNCC3)cc2)c1` (stereo not drawn) [Compound 28, 5-(4-(Hydroxymethyl)cubane-1-carboxamido)-4′-(piperidin-4-yl)-[1,1′-biphenyl]-3-carboxylic Acid], the half-maximal inhibitory concentration (IC50) was greater than 100 µM at hP2Y14R [1] (IC50 (μM), Table 1B, cells that print only footnote mark c) and greater than 100 µM on hP2Y14R [1] (IC50 at hP2Y14R).
